Test results reported in patent US20070128217A1 (priority 2003, published 2007).

Tests used:
[1] = system: antibodies in sera from SARS patients (sera 1a, 1b, 2, 6, 37, 62, London, SARS-yellow, SARS-green); type: binding, human; design: Binding of serum 6 to linear peptides of protein X1 of SARS-CoV Urbani / Binding of serum 37 to linear peptides of protein X1 of SARS-CoV Urbani / Binding of serum 6 to looped/cyclic peptide (PEPSCAN-ELISA) / Binding of serum 37 to looped/cyclic peptide (PEPSCAN-ELISA) / Binding of serum 37 to looped/cyclic peptides of protein X1 of SARS-CoV Urbani / Binding of serum 6 to linear peptides of protein X2 / Binding of serum 37 to linear peptides of protein X2 / Binding of serum 37 to looped/cyclic peptides of protein X2 of SARS-CoV Urbani / Binding of serum 6 to linear peptides of protein M of SARS-CoV Urbani / Binding of serum 37 to linear peptides of protein M of SARS-CoV Urbani / Binding of serum 6 to looped/cyclic peptides of protein M of SARS-CoV Urbani / Binding of serum 37 to looped/cyclic peptides of protein M of SARS-CoV Urbani / Binding of serum 6 to linear peptides of protein X3 of SARS-CoV Urbani / Binding of serum 37 to linear peptides of protein X3 of SARS-CoV Urbani / Binding of serum 37 to looped/cyclic peptides of protein X3 of SARS-CoV Urbani / Binding of serum 6 to linear peptides of protein X4 of SARS-CoV Urbani / Binding of serum 37 to linear peptides of protein X4 of SARS-CoV Urbani / Binding of serum 37 to looped/cyclic peptides of protein X4 of SARS-CoV Urbani / Binding of serum 6 to linear peptides of protein X5 of SARS-CoV Urbani / Binding of serum 37 to linear peptides of protein X5 of SARS-CoV Urbani / Binding of serum 37 to looped/cyclic peptides of protein X5 of SARS-CoV Urbani / Binding of serum 6 to linear peptides of protein N of SARS-CoV Urbani / Binding of serum 37 to linear peptides of protein N of SARS-CoV Urbani / Binding of serum 6 to linear peptide (PEPSCAN-ELISA) / Binding of serum 1a to looped/cyclic peptides of protein N of SARS-CoV Urbani / Binding of serum 1b to looped/cyclic peptides of protein N of SARS-CoV Urbani / Binding of serum 2 to looped/cyclic peptides of protein N of SARS-CoV Urbani / Binding of serum 6 to looped/cyclic peptides of protein N of SARS-CoV Urbani / Binding of serum 37 to looped/cyclic peptides of protein N of SARS-CoV Urbani / Binding of serum 62 to looped/cyclic peptides of protein N of SARS-CoV Urbani / Binding of serum London to looped/cyclic peptides of protein N of SARS-CoV Urbani / Binding of serum SARS-green to looped/cyclic peptides of protein N of SARS-CoV Urbani: unit not given here
[2] = system: control sera (pooled serum of ten healthy LUMC hospital workers; commercial negative donor pooled serum from the Dutch bloodbank); type: binding, human; design: Binding of Control serum LUMC to linear peptides / Binding of Control serum Blood-bank to linear peptides / Binding of Control serum LUMC to looped peptides / Binding of Control Serum Blood-Bank to Looped peptides / Binding of Control serum LUMC to linear peptides of the protein M of SARS-CoV Urbani / Binding of Control serum Blood-bank to linear peptides of the protein M of SARS-CoV Urbani / Binding of Control serum LUMC to looped peptides of the protein M of SARS-CoV Urbani / Binding of Control Serum Blood-Bank to Looped peptides of the protein M of SARS-CoV Urbani: unit not given here
[3] = system: rabbit serum obtained by immunizing a rabbit with the SARS-CoV strain Frankfurt 1; type: binding; design: Binding of a rabbit serum to linear peptides / Binding of a rabbit serum to looped peptides / Rabbit serum linear peptides / Rabbit serum looped peptides / Binding of a rabbit serum to linear peptides of protein N of SARS-CoV Urbani (Rabbit serum linear peptides) / Binding of a rabbit serum to looped/cyclic peptides of protein N of SARS-CoV Urbani (Rabbit serum looped peptides): unit not given here

For LTSLLKTHRMCKYTQ, the “Binding of serum 1a to linear peptides of protein X2” value [1] was 0.7, the “Binding of serum 1a to looped/cyclic peptides of protein X2 of SARS-CoV Urbani” value [1] was 0.4 and the “Binding of serum 1b to linear peptides of protein X2” value [1] was 0.3. The “Binding of serum 1b to looped/cyclic peptides of protein X2 of SARS-CoV Urbani” value [1] was 0.3, the “Binding of serum 2 to linear peptides of protein X2” value [1] was 0.5 and the “Binding of serum 2 to looped/cyclic peptides of protein X2 of SARS-CoV Urbani” value [1] was 0.2. The “Binding of serum 6 to linear peptides of protein X2” value [1] was 0.5, the “Binding of serum 6 to looped/cyclic peptides of protein X2 of SARS-CoV Urbani” value [1] was 0.2 and the “Binding of serum 37 to linear peptides of protein X2” value [1] was 0.6. The “Binding of serum 37 to looped/cyclic peptides of protein X2 of SARS-CoV Urbani” value [1] was 0.3, the “Binding of serum 62 to linear peptides of protein X2” value [1] was 0.6 and the “Binding of serum 62 to looped/cyclic peptides of protein X2 of SARS-CoV Urbani” value [1] was 0.4. For the same sequence, the “Binding of serum London to linear peptides of protein X2” value [1] was 0.5, the “Binding of serum London to looped/cyclic peptides of protein X2 of SARS-CoV Urbani” value [1] was 0.2 and the “Binding of serum SARS-green to linear peptides of protein X2” value [1] was 0.2. For the same sequence, the “Binding of serum SARS-green to looped/cyclic peptides of protein X2 of SARS-CoV Urbani” value [1] was 0.2, the “Binding of serum SARS-yellow to linear peptides of protein X2” value [1] was 0.4 and the “Binding of serum SARS-yellow to looped/cyclic peptides of protein X2 of SARS-CoV Urbani” value [1] was 0.3. For the same sequence, the “Binding of Control Serum Blood-Bank to Looped peptides” value [2] was 0.4, the “Binding of Control serum Blood-bank to linear peptides” value [2] was 0.5 and the “Binding of Control serum LUMC to linear peptides” value [2] was 0.4. The “Binding of Control serum LUMC to looped peptides” value [2] was 0.5, the “Binding of a rabbit serum to linear peptides” value [3] was 0.3 and the “Binding of a rabbit serum to looped peptides” value [3] was 0.4.

LVFLILCFTIKRKTE was tested, and the “Binding of serum 1a to linear peptides of protein X4 of SARS-CoV Urbani” value [1] was 0.7, the “Binding of serum 1a to looped/cyclic peptides of protein X4 of SARS-CoV Urbani” value [1] was 0.7 and the “Binding of serum 1b to linear peptides of protein X4 of SARS-CoV Urbani” value [1] was 0.6. The “Binding of serum 1b to looped/cyclic peptides of protein X4 of SARS-CoV Urbani” value [1] was 0.4, the “Binding of serum 2 to linear peptides of protein X4 of SARS-CoV Urbani” value [1] was 0.5 and the “Binding of serum 2 to looped/cyclic peptides of protein X4 of SARS-CoV Urbani” value [1] was 0.6. The “Binding of serum 6 to linear peptides of protein X4 of SARS-CoV Urbani” value [1] was 0.7, the “Binding of serum 6 to looped/cyclic peptides of protein X4 of SARS-CoV Urbani” value [1] was 0.7 and the “Binding of serum 37 to linear peptides of protein X4 of SARS-CoV Urbani” value [1] was 0.7. The “Binding of serum 37 to looped/cyclic peptides of protein X4 of SARS-CoV Urbani” value [1] was 0.6, the “Binding of serum 62 to linear peptides of protein X4 of SARS-CoV Urbani” value [1] was 0.8 and the “Binding of serum 62 to looped/cyclic peptides of protein X4 of SARS-CoV Urbani” value [1] was 0.7. For the same sequence, the “Binding of serum London to linear peptides of protein X4 of SARS-CoV Urbani” value [1] was 0.8, the “Binding of serum London to looped/cyclic peptides of protein X4 of SARS-CoV Urbani” value [1] was 0.4 and the “Binding of serum SARS-green to linear peptides of protein X4 of SARS-CoV Urbani” value [1] was 0.7. The “Binding of serum SARS-green to looped/cyclic peptides of protein X4 of SARS-CoV Urbani” value [1] was 0.2, the “Binding of serum SARS-yellow to linear peptides of protein X4 of SARS-CoV Urbani” value [1] was 0.6 and the “Binding of serum SARS-yellow to looped/cyclic peptides of protein X4 of SARS-CoV Urbani” value [1] was 0.7. The “Binding of Control Serum Blood-Bank to Looped peptides” value [2] was 0.8, the “Binding of Control serum Blood-bank to linear peptides” value [2] was 0.8 and the “Binding of Control serum LUMC to linear peptides” value [2] was 0.6. For the same sequence, the “Binding of Control serum LUMC to looped peptides” value [2] was 0.6, the “Rabbit serum linear peptides” value [3] was 0.5 and the “Rabbit serum looped peptides” value [3] was 0.6.

For LVFLWLLWPVTLACF, the “Binding of serum 1a to linear peptides of protein M of SARS-CoV Urbani” value [1] was 0.7, the “Binding of serum 1a to looped/cyclic peptides of protein M of SARS-CoV Urbani” value [1] was 0.6 and the “Binding of serum 1b to linear peptides of protein M of SARS-CoV Urbani” value [1] was 0.5. For the same sequence, the “Binding of serum 1b to looped/cyclic peptides of protein M of SARS-CoV Urbani” value [1] was 0.5, the “Binding of serum 2 to linear peptides of protein M of SARS-CoV Urbani” value [1] was 0.4 and the “Binding of serum 2 to looped/cyclic peptides of protein M of SARS-CoV Urbani” value [1] was 0.7. For the same sequence, the “Binding of serum 6 to linear peptides of protein M of SARS-CoV Urbani” value [1] was 0.6, the “Binding of serum 6 to looped/cyclic peptides of protein M of SARS-CoV Urbani” value [1] was 0.6 and the “Binding of serum 37 to linear peptides of protein M of SARS-CoV Urbani” value [1] was 0.6. For the same sequence, the “Binding of serum 37 to looped/cyclic peptides of protein M of SARS-CoV Urbani” value [1] was 0.7, the “Binding of serum 62 to linear peptides of protein M of SARS-CoV Urbani” value [1] was 0.8 and the “Binding of serum 62 to looped/cyclic peptides of protein M of SARS-CoV Urbani” value [1] was 0.7. The “Binding of serum London to linear peptides of protein M of SARS-CoV Urbani” value [1] was 0.7, the “Binding of serum London to looped/cyclic peptides of protein M of SARS-CoV Urbani” value [1] was 0.2 and the “Binding of serum SARS-green to linear peptides of protein M of SARS-CoV Urbani” value [1] was 0.2. For the same sequence, the “Binding of serum SARS-green to looped/cyclic peptides of protein M of SARS-CoV Urbani” value [1] was 0.3, the “Binding of serum SARS-yellow to linear peptides of protein M of SARS-CoV Urbani” value [1] was 0.1 and the “Binding of serum SARS-yellow to looped/cyclic peptides of protein M of SARS-CoV Urbani” value [1] was 0.4. The “Binding of Control Serum Blood-Bank to Looped peptides of the protein M of SARS-CoV Urbani” value [2] was 0.7, the “Binding of Control serum Blood-bank to linear peptides of the protein M of SARS-CoV Urbani” value [2] was 0.5 and the “Binding of Control serum LUMC to linear peptides of the protein M of SARS-CoV Urbani” value [2] was 0.2. For the same sequence, the “Binding of Control serum LUMC to looped peptides of the protein M of SARS-CoV Urbani” value [2] was 0.7, the “Rabbit serum linear peptides” value [3] was 0.3 and the “Rabbit serum looped peptides” value [3] was 0.3.
